Measurements published in patent US7786165B2, “Aminophenylpropanoic acid derivative” (Takeda Pharmaceutical Company Limited, priority 2004, dated 2010).
Where a name gives a salt, the structure may show the parent alone.

Biological target: T1, human GPR40 (Homo sapiens, UniProt O14842)
T1 construct: expressed in transfected cells; host or cells: CHO cell line stably expressing human GPR40
Assay: Determination of EC50 for human GPR40: intracellular calcium change by FLIPR in CHO cells stably expressing human GPR40
Type: cell-based
Conditions: CHO cell line stably expressing human GPR40, changes in intracellular calcium concentration, Fluo3-AM, read-out: EC50 (Receptor Function Modulating Action On GPR40)
Experimental: Determination of EC50 of the Compound of the Present Invention for Human GPR40
For determination of EC50, CHO cell line that stably expressed human GPR40 was used. Unless otherwise indicated, the CHO cell line was cultured using α-MEM medium (Invitrogen) containing 10% fetal calf serum (Invitrogen).
The cells cultured to nearly confluent were rinsed with PBS (Invitrogen) on the previous day of the assay, peeled off with 0.05% Trypsin-EDTA solution (Invitrogen) and recovered by centrifugation. The number of the obtained cells was counted, and the cells were diluted such that 3×10^5 cells were contained per 1 mL of the medium, dispensed to a black welled 96-well plate (coster) by 100 μL per well and cultured overnight in a CO2 incubator. Various test compounds were added to the CHO cells thus prepared, and the changes in the intracellular calcium concentration were measured using FLIPR (Molecular Device). The below-mentioned pre-treatment was applied to measure changes in the intracellular calcium concentration by FLIPR.
First, an assay buffer for adding a fluorescence dye Fluo3-AM (DOJIN) to the cells, or for washing the cells immediately before FLIPR assay was prepared. To a solution of HBSS (Invitrogen, 1000 mL) to which 1M HEPES (pH 7.4, DOJIN, 20 mL) added (hereinafter HBSS/HEPES solution) was added a solution (10 mL) obtained by dissolving probenecid (Sigma, 710 mg) in 1N NaOH (5 mL), and adding and mixing an HBSS/HEPES solution (5 mL), and the resulting solution was used as an assay buffer. Next, Fluo3-AM (50 μg) was dissolved in dimethylsulfoxide (Wako, 21 μL), and an equivalent amount of 20% pluronic acid (Molecular Probes) was added and mixed. The solution was added to the assay buffer (10.6 mL) supplemented with fetal vovine serum (105 μL) to give a fluorescence dye solution. The medium of the CHO cells inoculated to the black welled 96-well plate on the previous day of assay was removed, the fluorescence dye solution was immediately dispensed by 100 μL per well and the cells were cultured in a CO2 incubator for 1 hr to allow intake of the fluorescence dye by the cells. The cells after the culture were washed with the above-mentioned assay buffer and set on FLIPR. The test compound was diluted with dimethylsulfoxide in advance, dispensed to polypropylene 96-well plate (sample plate) by […], and cryopreserved at −20° C. To the thawed sample plate was added an assay buffer containing 0.015% CHAPS (DOJIN) by 198 μL, and simultaneously set on FLIPR together with the cell plate. After the aforementioned pre-treatment, changes in the intracellular calcium concentration upon addition of various test compounds as measured by FLIPR. Based on the results, a dose-response curve of each test compound was formed and EC50 was calculated.

T1 sequence (O14842 whole entry): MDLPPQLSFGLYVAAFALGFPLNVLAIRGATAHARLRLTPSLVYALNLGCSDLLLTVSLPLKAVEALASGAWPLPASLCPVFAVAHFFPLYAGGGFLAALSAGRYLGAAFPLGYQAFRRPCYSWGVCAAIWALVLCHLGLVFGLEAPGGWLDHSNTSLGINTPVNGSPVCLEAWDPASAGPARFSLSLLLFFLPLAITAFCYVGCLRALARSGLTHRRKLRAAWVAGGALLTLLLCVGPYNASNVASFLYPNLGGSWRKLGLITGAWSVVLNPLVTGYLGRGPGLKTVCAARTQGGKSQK

Structure (SMILES)	EC50 [nM]
Cc1ccc2ccccc2c1-c1cccc(CNc2ccc(CCC(=O)O)cc2)c1 [Example 26, 3-(4-{[3-(2-methyl-1-naphthyl)benzyl]amino}phenyl)propanoic acid hydrochloride]	< 100
CCCN(Cc1ccc(CNc2ccc(CCC(=O)O)cc2)cc1)c1nc(-c2ccccc2)cs1 [Example 21, 3-{4-[(4-{[(4-phenyl-1,3-thiazol-2-yl)(propyl)amino]methyl}benzyl)amino]phenyl}propanoic acid]	< 100
CC(C)(C)c1cc(CCc2ccccc2)n(Cc2ccc(CNc3ccc(CCC(=O)O)c(F)c3)cc2)n1 [Example 113, 3-{4-[(4-{[3-tert-butyl-5-(2-phenylethyl)-1H-pyrazol-1-yl]methyl}benzyl)amino]-2-fluorophenyl}propanoic acid methanesulfonate]	< 100
O=C(O)CCc1ccc(NC2CCc3cc(OCc4ccccc4)ccc32)cc1 (stereo not shown) [Example 210, 3-(4-{[5-(benzyloxy)-2,3-dihydro-1H-inden-1-yl]amino}phenyl)propanoic acid]	< 100
CCOCCOc1ccc(-c2cc(CNc3ccc(CCC(=O)O)cc3)ccc2OC(C)C)cc1 [Example 127, 3-[4-({[4′-(2-ethoxyethoxy)-6-isopropoxybiphenyl-3-yl]methyl}amino)phenyl]propanoic acid]	< 100
O=C(O)CCc1ccc(NCc2ccc(Cn3nc(-c4ccccc4)cc3-c3ccccc3)cc2)cc1 [Example 44, 3-[4-({4-[(3,5-diphenyl-1H-pyrazol-1-yl)methyl]benzyl}amino)phenyl]propanoic acid]	< 100
Cc1cc(OC2CCS(=O)(=O)CC2)cc(C)c1-c1cccc(CNc2ccc(CCC(=O)O)c(F)c2)c1 [Example 204, 3-{4-[({4′-[(1,1-dioxidotetrahydro-2H-thiopyran-4-yl)oxy]-2′,6′-dimethylbiphenyl-3-yl}methyl)amino]-2-fluorophenyl}propanoic acid methanesulfonate]	< 100
CCOCCOc1ccc(-c2cc(CNc3ccc(CCC(=O)O)cc3)ccc2OCc2ccccc2)cc1 [Example 70, 3-[4-({[6-(benzyloxy)-4′-(2-ethoxyethoxy)biphenyl-3-yl]methyl}amino)phenyl]propanoic acid]	< 100
CC(C)(C)c1cc(COc2ccccc2)n(Cc2ccc(CNc3ccc(CCC(=O)O)c(F)c3)cc2)n1 [Example 169, 3-{4-[(4-{[3-tert-butyl-5-(phenoxymethyl)-1H-pyrazol-1-yl]methyl}benzyl)amino]-2-fluorophenyl}propanoic acid dimethanesulfonate]	< 100
COc1cccc(Oc2cc(C)c(-c3cccc(CNc4ccc(CCC(=O)O)c(F)c4)c3)c(C)c2)n1 [Example 164, 3-{2-fluoro-4-[({4′-[(6-methoxypyridin-2-yl)oxy]-2′,6′-dimethylbiphenyl-3-yl}methyl)amino]phenyl}propanoic acid dihydrochloride]	< 100
Cc1ccc(COc2ccc(CNc3ccc(CCC(=O)O)c(F)c3)cc2CC(C)C)cc1 [Example 131, 3-[2-fluoro-4-({3-isobutyl-4-[(4-methylbenzyl)oxy]benzyl}amino)phenyl]propanoic acid]	< 100
CC(C)COc1ccc(CNc2ccc(CCC(=O)O)cc2)cc1CN1c2ccccc2C=CC1(C)C [Example 138, 3-[4-({3-[(2,2-dimethylquinolin-1(2H)-yl)methyl]-4-isobutoxybenzyl}amino)phenyl]propanoic acid]	< 1000
O=C(O)CCc1ccc(NCc2ccc(Cn3c(-c4ccccc4)cc4ccccc43)cc2)cc1 [Example 12, 3-[4-({4-[(2-phenyl-1H-indol-1-yl)methyl]benzyl}amino)phenyl]propanoic acid hydrochloride]	< 100
CCOCCOc1ccc(-c2cc(CNc3ccc(CCC(=O)O)c(F)c3)cc3c2OC(C)(C)C3)cc1 [Example 136, 3-{4-[({7-[4-(2-ethoxyethoxy)phenyl]-2,2-dimethyl-2,3-dihydro-1-benzofuran-5-yl}methyl)amino]-2-fluorophenyl}propanoic acid methanesulfonate]	< 100
O=C(O)CCc1ccc(NCc2ccc(CN(CCc3ccccc3)c3nc(-c4ccccc4)cs3)cc2)cc1 [Example 18, 3-{4-[(4-{[(2-phenylethyl)(4-phenyl-1,3-thiazol-2-yl)amino]methyl}benzyl)amino]phenyl}propanoic acid]	< 100
CC(C)(C)c1cc(OCc2ccccc2)n(Cc2ccc(CNc3ccc(CCC(=O)O)c(F)c3)cc2)n1 [Example 171, 3-{4-[(4-{[5-(benzyloxy)-3-tert-butyl-1H-pyrazol-1-yl]methyl}benzyl)amino]-2-fluorophenyl}propanoic acid dimethanesulfonate]	< 100

The remaining lines, values ahead:

EC50 [nM]	Structure (SMILES)
< 100	CCOCCOc1cc(C)c(-c2cccc(CNc3ccc(OCC(=O)O)cc3)c2)c(C)c1 [Example 67, [4-({[4′-(2-ethoxyethoxy)-2′,6′-dimethylbiphenyl-3-yl]methyl}amino)phenoxy]acetic acid]
< 100	CCOCCOc1cc(C)c(-c2cccc(CNc3ccc(CC(F)(F)C(=O)O)cc3)c2)c(C)c1 [Example 117, 3-[4-({[4′-(2-ethoxyethoxy)-2′,6′-dimethylbiphenyl-3-yl]methyl}amino)phenyl]-2,2-difluoropropanoic acid]
< 1000	Cc1cc(OCC(=O)O)cc(C)c1-c1cccc(CNc2ccc(CCC(=O)O)c(F)c2)c1 [Example 100, 3-[4-({[4′-(carboxymethoxy)-2′,6′-dimethylbiphenyl-3-yl]methyl}amino)-2-fluorophenyl]propanoic acid]
< 100	Cc1cc(OCC2CC2)cc(C)c1-c1cccc(CNc2ccc(CCC(=O)O)cc2)c1 [Example 33, 3-[4-({[4′-(cyclopropylmethoxy)-2′,6′-dimethylbiphenyl-3-yl]methyl}amino)phenyl]propanoic acid hydrochloride]
< 100	CCOCCOc1cc(C)c(-c2cccc(CNc3ccc(CCC(=O)O)cn3)c2)c(C)c1 [Example 120, 3-[6-({[4′-(2-ethoxyethoxy)-2′,6′-dimethylbiphenyl-3-yl]methyl}amino)pyridin-3-yl]propanoic acid methanesulfonate]
< 100	Cc1cc(OCc2ccccc2)cc(C)c1-c1cccc(CNc2ccc(CCC(=O)O)cc2)c1 [Example 30, 3-[4-({[4′-(benzyloxy)-2′,6′-dimethylbiphenyl-3-yl]methyl}amino)phenyl]propanoic acid hydrochloride]
< 100	CCS(=O)(=O)CCOc1cc(C)c(-c2cccc(CNc3ccc(CCC(=O)O)c(F)c3)c2)c(C)c1 [Example 146, 3-{4-[({4′-[2-(ethylsulfonyl)ethoxy]-2′,6′-dimethylbiphenyl-3-yl}methyl)amino]-2-fluorophenyl}propanoic acid methanesulfonate]
< 100	CCOCCOc1cc(C)c(-c2cccc(CNc3ccc(CCC(=O)O)c(F)c3)c2)c(C)c1 [Example 40, 3-[4-({[4′-(2-ethoxyethoxy)-2′,6′-dimethylbiphenyl-3-yl]methyl}amino)-2-fluorophenyl]propanoic acid hydrochloride]
< 100	Cc1cc(OCCCN2CCCC2=O)cc(C)c1-c1cccc(CNc2ccc(CCC(=O)O)c(F)c2)c1 [Example 149, 3-{4-[({2′,6′-dimethyl-4′-[3-(2-oxopyrrolidin-1-yl)propoxy]biphenyl-3-yl}methyl)amino]-2-fluorophenyl}propanoic acid benzenesulfonate]
